The text below walks through data of publication PMC10452266, “Divergent Pharmacology and Biased Signaling of the Four Melanocortin-4 Receptor Isoforms in Rainbow Trout (Oncorhynchus mykiss)” (Biomolecules, 2023).

Assay [1] has as its target T1, hMC4R (Homo sapiens, UniProt P32245).
T1 construct: expressed in transfected cells; host or cells: HEK293T
Kind of assay: Ligand-binding assay (displacement of 125I-NDP-MSH), hMC4R. The method, then:
(§1) Cells were plated into 24-well or 6-well plates pre-coated with 0.1% gelatin and transfected with plasmids by the calcium phosphate precipitation method.
A binding assay was conducted as described previously.
Binding assays were used to investigate the binding properties of omMc4rs. […] Data are expressed as % of hMC4R binding ± range from duplicate measurements within one experiment. The curves are representative of at least three independent experiments.

Assay [2] deals with saMc4r. The note with it: ref [51]; cited from earlier work.
Assay [3] relates to ciMc4r. The note with it: ref [51]; cited from earlier work.
In assay [4] the test system is omMc4ra1. Kind of assay: Ligand-binding assay (displacement of 125I-NDP-MSH), omMc4ra1. More on the design: species or system rainbow trout (Oncorhynchus mykiss). The note with it: AgRP 10^-12 to 10^-7 M, MCL0020 and Ipsen 5i 10^-11 to 10^-6 M, ML00253764 10^-10 to 10^-5 M, transfected HEK293T cells. The method, then: (§2) Human Embryonic Kidney (HEK) 293T cells, provided by American Type Culture Collection (Manassas, VA, USA), were cultured as described previously. Cells were plated into 24-well or 6-well plates pre-coated with 0.1% gelatin and transfected with plasmids by the calcium phosphate precipitation method.
(§3) A binding assay was conducted as described previously. […].
(§4) Binding assays were used to investigate the binding properties of omMc4rs. […].  Figure 6 Ligand-binding properties of omMc4rs. […]. Data are expressed as % of hMC4R binding ± range from duplicate measurements within one experiment. The curves are representative of at least three independent experiments.

The subject of assay [5] is ciMc4r. The note with it: ref [51]; cited from earlier work. From the text:
(§5) Numerous constitutively active mutants have been reported in several GPCRs, resulting in various human diseases, and inverse agonism will be vital for correcting the diseases caused by activating mutations in GPCRs. The constitutive activity of teleost Mc4r may have important physiological functions.
The source holds these as a separate data set.

In assay [6] the test system is saMc4r. The settings on record: ref [51]; cited from earlier work.
Source text: as §5
The source holds these as a separate data set.

Assay [7] has as its system omMc4rb2. Kind of assay: ERK1/2 phosphorylation assay, omMc4rb2. The assay is classed as cell-based, rainbow trout (Oncorhynchus mykiss). The settings on record: 1 μM α-MSH, 10 nM AgRP, 1 μM MCL0020, 1 μM Ipsen 5i or 1 μM ML00253764, 5 min, HEK293T, Western blot, at least three independent experiments. The method, then:
as §2
(§6) HEK293T cells were transfected with omMC4Rs. Twenty-four hours after transfection, cells were washed twice and starved in media without serum for 24 h. […] Rabbit anti-pERK1/2 antibody (Catalog #4370, Cell Signaling, Beverly, MA, USA) and mouse anti-β-tubulin antibody (Developmental Studies Hybridoma Bank, University of Iowa, Iowa City, IA, USA) were used in this study. The bound antibodies were quantified using ImageJ 1.44 software (National Institute of Health, Bethesda, MD, USA).
(§7) Figure 9 ERK1/2 signaling properties of trout Mc4rs. (A) Immunoblots of pERK1/2 in cells expressing omMc4ra1, omMc4ra2, omMc4rb1, or omMc4rb2. HEK293T cells were transiently transfected with omMc4ra1, omMc4ra2, omMc4rb1, omMc4rb2, or empty vector plasmids and were starved overnight 24 h after transfection. […] Western blots were performed as described in Materials and Methods. (B) Densitometry results of basal pERK1/2 levels of omMc4ra1, omMc4ra2, omMc4rb1, and omMc4rb2. (C) Densitometry results of pERK1/2 level of omMc4ra1. (D) Densitometry results of pERK1/2 level of omMc4ra2. […]

Assay [8] relates to omMc4ra2. Briefly: Effect of antagonists on basal cAMP level, omMc4ra2. The assay is classed as cell-based, rainbow trout (Oncorhynchus mykiss). The note with it: 10 nM AgRP, 1 μM MCL0020, 1 μM ML00253764 or 1 μM Ipsen 5i, 1 h, HEK293T, RIA, three independent experiments. The method, then: as §1
(§8) Intracellular cAMP levels were determined according to previous protocol.

Assay [9] addresses T1, hMC4R. The settings on record: ref [51]; cited from earlier work.
In assay [10] the test system is omMc4rb2. Briefly: Effect of antagonists on basal cAMP level, omMc4rb2. Format: cell-based, rainbow trout (Oncorhynchus mykiss). The note with it: 10 nM AgRP, 1 μM MCL0020, 1 μM ML00253764 or 1 μM Ipsen 5i, 1 h, HEK293T, RIA, three independent experiments. The method, then: as §1, §8
Assay [11] has as its target T1, hMC4R. The note with it: cited from earlier work.
The target of assay [12] is omMc4rb1. Kind of assay: Ligand-binding assay (displacement of 125I-NDP-MSH), omMc4rb1. More on the design: species or system rainbow trout (Oncorhynchus mykiss). The settings on record: displacement of 125I-NDP-MSH, transiently transfected HEK293T cells, 48 h after transfection, mean ± SEM of at least three independent experiments. The method, then: as §2, §3, §4
The subject of assay [13] is omMc4rb1. Kind of assay: Effect of antagonists on basal cAMP level, omMc4rb1. The assay is classed as cell-based, rainbow trout (Oncorhynchus mykiss). The settings on record: 10 nM AgRP, 1 μM MCL0020, 1 μM ML00253764 or 1 μM Ipsen 5i, 1 h, HEK293T, RIA, three independent experiments. The method, then: as §1, §8
Assay [14] deals with ciMc4r. The settings on record: ciMc4r (grass carp); ref [48],[51],[81]; cited from earlier work. The text has this: (§9) MC4R-mediated ERK1/2 signaling has a crucial role in the modulation of energy homeostasis. Although teleost Mc4rs have much higher basal activities in Gs-cAMP signaling, constitutive activation of ERK1/2 signaling is only observed in topmouth culter Mc4r but not in saMc4r and ciMc4r. […] Our data documented that these three compounds only activated ERK1/2 signaling of omMc4rb1 but not the other three omMc4rs (Figure 9).

Assay [15] deals with T1, hMC4R. The note with it: ref [48],[51],[81]; cited from earlier work.
Source text: as §9

Assay [16] concerns saMc4r. The settings on record: saMc4r (spotted scat); ref [48],[51],[81]; cited from earlier work.
Source text: as §9

The test system of assay [17] is omMc4ra2. Kind of assay: Ligand-binding assay (displacement of 125I-NDP-MSH), omMc4ra2. Further details: species or system rainbow trout (Oncorhynchus mykiss). The settings on record: AgRP 10^-12 to 10^-7 M, MCL0020 and Ipsen 5i 10^-11 to 10^-6 M, ML00253764 10^-10 to 10^-5 M, transfected HEK293T cells. The method, then:
as §2, §3, §4

Assay [18] has as its system omMc4ra2. Kind of assay: ERK1/2 phosphorylation assay, omMc4ra2. The assay is classed as cell-based, rainbow trout (Oncorhynchus mykiss). The settings on record: 1 μM α-MSH, 10 nM AgRP, 1 μM MCL0020, 1 μM Ipsen 5i or 1 μM ML00253764, 5 min, HEK293T, Western blot, at least three independent experiments. The method, then: as §2, §6, §7
In assay [19] the test system is omMc4rb2. Kind of assay: Ligand-binding assay (displacement of 125I-NDP-MSH), omMc4rb2. More on the design: species or system rainbow trout (Oncorhynchus mykiss). The note with it: AgRP 10^-12 to 10^-7 M, MCL0020 and Ipsen 5i 10^-11 to 10^-6 M, ML00253764 10^-10 to 10^-5 M, transfected HEK293T cells. The method, then:
as §2, §3, §4

The test system of assay [20] is omMc4rb1. Briefly: ERK1/2 phosphorylation assay, omMc4rb1. Format: cell-based, rainbow trout (Oncorhynchus mykiss). The method, then: as §2, §6
Figure 9 ERK1/2 signaling properties of trout Mc4rs. (A) Immunoblots of pERK1/2 in cells expressing omMc4ra1, omMc4ra2, omMc4rb1, or omMc4rb2. HEK293T cells were transiently transfected with omMc4ra1, omMc4ra2, omMc4rb1, omMc4rb2, or empty vector plasmids and were starved overnight 24 h after transfection. […] Western blots were performed as described in Materials and Methods. (B) Densitometry results of basal pERK1/2 levels of omMc4ra1, omMc4ra2, omMc4rb1, and omMc4rb2. (C) Densitometry results of pERK1/2 level of omMc4ra1. (D) Densitometry results of pERK1/2 level of omMc4ra2. (E) Densitometry results of pERK1/2 level of omMc4rb1. (F) Densitometry results of pERK1/2 level of omMc4rb2.

The test system of assay [21] is omMc4ra1. Briefly: Effect of antagonists on basal cAMP level, omMc4ra1. Format: cell-based, rainbow trout (Oncorhynchus mykiss). The note with it: 10 nM AgRP, 1 μM MCL0020, 1 μM ML00253764 or 1 μM Ipsen 5i, 1 h, HEK293T, RIA, three independent experiments. The method, then:
as §1, §8

For assay [22], the system named is omMc4ra1. Briefly: ERK1/2 phosphorylation assay, omMc4ra1. The assay is classed as cell-based, rainbow trout (Oncorhynchus mykiss). The note with it: 1 μM α-MSH, 10 nM AgRP, 1 μM MCL0020, 1 μM Ipsen 5i or 1 μM ML00253764, 5 min, HEK293T, Western blot, at least three independent experiments. The method, then: as §2, §6, §7

Like-named read-outs stand apart in the source and are kept apart here.

T1 sequence (P32245 whole entry): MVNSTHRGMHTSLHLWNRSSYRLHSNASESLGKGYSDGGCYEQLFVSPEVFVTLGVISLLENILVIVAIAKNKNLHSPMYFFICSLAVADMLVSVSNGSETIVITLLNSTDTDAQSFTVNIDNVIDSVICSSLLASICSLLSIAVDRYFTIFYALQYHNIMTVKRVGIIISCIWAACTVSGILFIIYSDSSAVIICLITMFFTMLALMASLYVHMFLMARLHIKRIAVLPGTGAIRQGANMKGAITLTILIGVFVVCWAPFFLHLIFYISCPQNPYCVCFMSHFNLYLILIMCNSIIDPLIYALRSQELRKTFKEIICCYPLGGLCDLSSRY

Consider `CSCC[C@@H]1NC(=O)[C@H](C)NC(=O)[C@H]([C@@H](C)O)NC(=O)CNC(=O)[C@H](CC(C)C)NC(=O)[C@H](CCCCN)NC(=O)[C@H](CCCNC(=N)N)NC(=O)[C@@H]2CSSC[C@@H]3NC(=O)[C@@H]4CCCN4C(=O)[C@H](C(C)C)NC(=O)[C@H](CCC(N)=O)NC(=O)[C@H](CCC(N)=O)NC(=O)CNC(=O)[C@H](CC(C)C)NC(=O)[C@@H]4CSSC[C@H](NC(=O)[C@H]([C@@H](C)O)NC(=O)[C@H](C)NC(=O)[C@H](CSSC[C@@H](C(=O)N[C@@H](CO)C(=O)N[C@@H](CCCNC(=N)N)C(=O)N[C@H](C(=O)O)[C@@H](C)O)NC(=O)[C@@H]5CCCN5C(=O)[C@H](CC(N)=O)NC1=O)NC(=O)[C@@H]1CCCN1C(=O)[C@H](CC(=O)O)NC(=O)[C@H](CSSC[C@H](NC(=O)[C@H](CCCNC(=N)N)NC(=O)[C@H](CCCNC(=N)N)NC(=O)[C@H](CO)NC(=O)[C@@H](N)CO)C(=O)N[C@@H](C(C)C)C(=O)N[C@@H](CCCNC(=N)N)C(=O)N[C@@H](CC(C)C)C(=O)N[C@@H](Cc1c[nH]cn1)C(=O)N[C@@H](CCC(=O)O)C(=O)N[C@@H](CO)C(=O)N4)NC3=O)C(=O)N[C@@H](Cc1ccc(O)cc1)C(=O)N[C@H]1CSSC[C@H](NC(=O)[C@H](Cc3ccccc3)NC(=O)[C@H](C)NC(=O)[C@H](CC(N)=O)NC(=O)[C@H](Cc3ccccc3)NC(=O)[C@H](Cc3ccccc3)NC(=O)[C@H](CCCNC(=N)N)NC1=O)C(=O)N[C@@H](Cc1ccc(O)cc1)C(=O)N2` [AgRP], for which the IC50 in [1] was 32.5 ± 7.76 nM.

`CC(=O)N[C@H](Cc1ccc2ccccc2c1)C(=O)N[C@@H](CCCNC(=N)N)C(=O)N[C@@H](Cc1ccc2ccccc2c1)C(N)=O` [MCL0020, Ac-D-2-Nal-Arg-2-Nal-NH2]: the “NDP-MSH displacement” value in assay [2], in [3] and in assay [9] was “replaces NDP-MSH binding” each time. Further, the “displacement of 125I-NDP-MSH binding” value in assay [4] is “only displaced ^125I-NDP-MSH binding to hMC4R and omMc4rb1”; in assay [17], “only displaced ^125I-NDP-MSH binding to hMC4R and omMc4rb1”; in assay [19] it was “only displaced ^125I-NDP-MSH binding to hMC4R and omMc4rb1”. Besides, the “NDP-MSH-induced cAMP generation” value in assay [5] was “antagonizes NDP-MSH-induced cAMP generation”. For the same compound, the “basal cAMP production” value in assay [5] is on record as “decreases the basal cAMP production of ciMc4r”. Also, the “basal and ligand-induced cAMP levels” value in [6] is “no effect on basal and ligand-induced cAMP levels”. Moreover, the “effect on ERK1/2 phosphorylation” value in assay [7] is reported as “no effect”; in assay [18], “no effect”; in assay [20] (1 μM α-MSH, 10 nM AgRP, 1 μM MCL0020, 1 μM Ipsen 5i or 1 μM ML00253764, 5 min, HEK293T, Western blot, at least three independent experiments), “significantly increased”; in [22] it was “not by ML00253764, Ipsen 5i, or MCL0020”. The “effect on basal cAMP level” value in assay [8], in assay [10], in assay [13] and in [21] was “no significant effect” each time. Also, the concentration for half-maximal inhibition (IC50) in assay [1] (hMC4R, displacement of 125I-NDP-MSH, transiently transfected HEK293T cells, 48 h after transfection, mean ± SEM of at least three independent experiments, read-out: IC50) amounted to 62.3 ± 4.82 nM; in [12], 305 ± 66.2 nM. The “basal activity of hMC4R and constitutively active mutant hMC4Rs” value in assay [11] (hMC4R and mutants, ref [1],[28],[48],[51]) is on record as “reduced by inverse agonists”. Also, in assay [11] (hMC4R, ref [51],[56],[79]), the “type of ligand at hMC4R” value is “neutral antagonist of hMC4R”. Also, the “biased signaling, Gs-cAMP versus ERK1/2” value in [14], in assay [15] and in [16] was “preferred activation on ERK1/2 signaling” throughout. Also, the “biased signaling, cAMP versus ERK1/2” value in assay [20] (concluded from binding, cAMP and pERK1/2 results) is recorded as “biased allosteric modulators for omMc4rb1 with selective activation on ERK1/2 signaling”.
